Assay results as given in patent US10350204B2, “Methods for treating cognitive deficits associated with fragile X syndrome” (Wisconsin Alumni Research Foundation, priority 2015, dated 2019).

Key:
Format in all cases: cell-based, mouse
[1] = system: Fmr1 KO and wildtype NPCs; assay: Western blot analyses of p-AKT, p-MDM2, MDM2 and P53 in NPCs; conditions: total AKT as loading control
[2] = system: Fmr1 KO and wildtype NPCs; assay: Differentiation assay of cultured NPCs (Tuj1 neurons, GFAP astrocytes); conditions: 4 days
Experimental: Proliferation and differentiation of aNPCs were analyzed using our published methods (Guo et al., Nature Med. (2011); Guo et al., Neuron 70, 924-938 (2011); Luo et al., PLoS Genet 6 (2010); Liu et al., Cell Stem Cell 6 (2010)). We used only early passage cells (between passage 4 and 10) and only the same passage numbers of wild type (WT) and Fmr1 KO cells. For each experiment, triplicate wells of cells were analyzed, and results were averaged as one data point (n=1). At least 3 independent experiments (n=3) were performed and used for statistical analyses for each analysis. […] For the differentiation assay, at 24 h post-plating, cells were changed into differentiation medium, Neurobasal A, containing 5 μM forskolin (Sigma-Aldrich, F-6886) and 1 μM retinoic acid (Sigma-Aldrich, R-2625) for 4 d, followed by fixation with 4% paraformaldehyde for 30 min, and then washed with Dulbecco's Phosphate Buffered Saline (DPBS), pH 7.4 for 30 min. Immunocytochemistry staining was carried out as described (Guo et al., Nature Med. (2011); Guo et al., Neuron 70, 924-938 (2011); Luo et al., PLoS Genet 6 (2010); Liu et al., Cell Stem Cell 6 (2010)). Briefly, cells were preblocked using DPBS containing 5% normal goat serum (VECTOR, S-1000) and 0.1% Triton X-100 for 30 min, followed by overnight incubation with primary antibodies: mouse anti-Tuj1 (1:1000, Promega, G712A) and rabbit anti-S100β (1:1000, Dako, Z0334).
After washing with Dulbecco s Phosphate Buffered Saline (DPBS), cells were incubated with secondary antibodies that included goat anti-mouse 568 (1:1000, Invitrogen, A11031), goat anti-rabbit 488 (1:1000, Invitrogen, A11008) followed by counterstaining with the fluorescent nuclear dye 4′,6-diamidino-2′-phenylindole dihydrochloride (DAPI, Sigma-Aldrich, B2261). […] (VECTOR, H-1000), the numbers of Tuj1, GFAP-positive cells were quantified using an Olympus BX51 microscope equipped with a MicroFire digital camera (Optronics) and a motorized stage using a 20× objective lens. The quantification was carried out using an unbiased stereology method with assistance from StereoInvestigator software (MBF Biosciences). The percentage of differentiated cells was calculated as the number of Tuj1- or GFAP-labeled cells divided by the total number of cells stained with DAPI.

[3] = system: Fmr1 KO and wildtype NPCs; assay: Western blot analyses of p-AKT, p-MDM2, MDM2 and P53 in NPCs
Experimental: NPCs were isolated from the dentate gyms of 8 to 10-week-old male Fmr1 KO mice and wild-type (wildtype) littermate controls based on our published methods (12, 64). Independently isolated cells serve as biological replicates. Proliferation and differentiation of NPCs was analyzed as described (11, 12, 61). We used only early passage cells (between passage 4 and 10) and only the same passage numbers of wildtype and Fmr1 KO cells. For each experiment, triplicate wells of cells were analyzed, and results were averaged as one data point (n=1). At least 3 independent biological replicates were used (n=3) for statistical analyses.
Protein samples were separated on SDS-PAGE gels (Bio-Rad), transferred to PVDF membranes (Millipore), and incubated with primary antibodies. After incubation with fluorescence-labeled secondary antibodies (Li—CoR), the membranes were imaged using Li—CoR and quantification was performed using ImageJ software. At least n=3 independent blots were used for statistical analysis.
For loading controls, membranes were probed with the mouse antibody against GAPDH.

[4] = system: Fmr1 KO and wildtype NPCs; assay: BrdU proliferation assay of cultured NPCs
Experimental: We used only early passage cells (between passage 4 and 10) and only the same passage numbers of wild type (WT) and Fmr1 KO cells. For each experiment, triplicate wells of cells were analyzed, and results were averaged as one data point (n=1). At least 3 independent experiments (n=3) were performed and used for statistical analyses for each analysis. To study cell proliferation, we dissociated neural stem cells with trypsin and plated them on poly-L-ornithine and laminin-coated 24 well plate (Scientific fisher, 87721) at a density of 100,000 cells per well in proliferation medium. At 20 h post-plating, 5 μM 5-bromo-2.′-deoxyuridine (BrdU, Sigma-Aldrich) was added into the culture medium for 6 h. NPCs were then washed with PBS and fixed with 4% paraformaldehyde for 30 min at room temperature, followed by immunohistochemical analysis. To detect BrdU incorporation, fixed cells were pretreated with 1M HCl for 30 min at 37° C., and then washed with borate buffer, pH 8.5, for 30 min. We then followed our standard immunohistochemistry protocol^10. BrdU incorporation assay was determined using an Operetta high content imaging system (PerkinElmer, Inc) and Harmony quantification software (PerkinElmer, Inc). The percentage of proliferating cells was defined as the number of BrdU-labeled cells divided by total DAPI-positive cells.
For proliferation assay in vitro, 1 μM MK2206 (Selleckchem, S1078) (AKT phosphorylation inhibitor), or 2 μM Nutlin-3 (Nt3, Selleckchem, 51061) (Mdm2 inhibitor), or 1 μM RG7112 (Selleckchem, S7030) (Mdm2 inhibitor) or YH239-EE (Selleckchem 57489) (4 μM) (Mdm2 inhibitor) was added to proliferating NPCs at 6 hours post-plating. Cells were then pulse labeled 18 hours later with 5 μM 5-bromo-2′-deoxyuridine (BrdU, Sigma-Aldrich, B5002) and incubated for 6 hours in the presence of inhibitor, followed by fixation, staining, and quantification.

[5] = Fmr1 KO NPCs, 1 μM MK2206, 2 μM Nutlin-3, 1 μM RG7112
[6] = wildtype NPCs, 1 μM MK2206, 2 μM Nutlin-3
[7] = Fmr1 KO NPCs, 1 μM MK2206, 2 μM Nutlin-3, 1 μM RG7112, 4 μM YH239-EE

| Compound | p-AKT ([1]; Fmr1 KO NPCs) | p-AKT ([1]; wildtype NPCs) | astroglial differentiation (GFAP+) [2, 5] | neuronal differentiation (Tuj1+) [2, 5] | astroglial differentiation (GFAP+) [2, 6] | neuronal differentiation (Tuj1+) [2, 6] | P53 expression ([3]; Fmr1 KO NPCs) | p-MDM2 (Ser166) ([3]; Fmr1 KO NPCs) | total MDM2 ([3]; Fmr1 KO NPCs) | p-MDM2 (Ser166) ([3]; wildtype NPCs) | total MDM2 ([3]; wildtype NPCs) | cell proliferation (BrdU+ cells) [4, 7] | cell proliferation (BrdU+ cells) [4, 6] |
| --- | --- | --- | --- | --- | --- | --- | --- | --- | --- | --- | --- | --- | --- |
| NC1(c2ccc(-c3nc4ccn5c(=O)[nH]nc5c4cc3-c3ccccc3)cc2)CCC1 [MK-2206] | reduced p-AKT | reduced p-AKT | decreased | increased neuronal differentiation | decreased | increased neuronal differentiation | enhanced P53 expression | reduced p-MDM2 | without affecting total MDM2 | reduced p-MDM2 | without affecting total MDM2 | decreased cell proliferation | decreased cell proliferation |
| CCOc1cc(C(C)(C)C)ccc1C1=N[C@@](C)(c2ccc(Cl)cc2)[C@@](C)(c2ccc(Cl)cc2)N1C(=O)N1CCN(CCCS(C)(=O)=O)CC1 [RG7112] |  |  | rescued astroglial differentiation phenotypes | rescued neuronal differentiation phenotypes |  |  |  |  |  |  |  | rescued the cell proliferation phenotype |  |
| CCOC(=O)c1[nH]c2cc(Cl)ccc2c1C(C(=O)NC(C)(C)C)N(C=O)Cc1ccc(Cl)cc1 (centres unmarked) [YH239-EE] |  |  |  |  |  |  |  |  |  |  |  | rescued the cell proliferation phenotype |  |
